From patent publication US7244738B2, “Arylamine-substituted quinazolinone compounds useful as alpha 1A/B adrenergic receptor antagonists” (Roche Palo Alto LLC, priority 2003, dated 2007)

Compared with `COc1cc2[nH]c(N(C)Cc3cccc(Nc4ncccn4)c3)nc(=O)c2c(OC)c1OC` [Example 213, 5,6,7-Trimethoxy-2-{methyl-[3-(pyrimidin-2-ylamino)-benzyl]-amino}-1H-quinaozlin-4-one], `COc1cc2[nH]c(N(C)Cc3cccc(Nc4nccc(Cl)n4)c3)nc(=O)c2c(OC)c1OC` [Example 215, 2-{[3-(4-Chloro-pyrimidin-2-ylamino)-benzyl]-methyl-amino}-5,6,7-trimethoxy-1H-quinazolin-4-one] is lower in melting point: 190.3 to 191.1 °C for the first, 128.9 to 133.4 °C for the second.

Compared with `COc1cc2[nH]c(N(C)Cc3cccc(Nc4ccnc(Cl)n4)c3)nc(=O)c2c(OC)c1OC` [Example 214, 2-{[3-(2-Chloro-pyrimidin-4-ylamino)-benzyl]-methyl-amino}-5,6,7-trimethoxy-1H-quinazolin-4-one], `COc1cc2[nH]c(N(C)Cc3cccc(Nc4cc(C)nc(Cl)n4)c3)nc(=O)c2c(OC)c1OC` [Example 218, 2-{[3-(2-Chloro-6-methyl-pyrimidin-4-ylamino)-benzyl]-methyl-amino}-5,6,7-trimethoxy-1H-quinazolin-4-one] is lower in melting point: 205.9 to 210.1 °C for the first, 185.5 to 187.1 °C for the second.

Compared with `COc1cc2[nH]c(N(C)Cc3cccc(Nc4nc(Cl)ncc4C)c3)nc(=O)c2c(OC)c1OC` [Example 217, 2-{[3-(2-Chloro-5-methyl-pyrimidin-4-ylamino)-benzyl]-methyl-amino}-5,6,7-trimethoxy-1H-quinazolin-4-one], `COc1cc2[nH]c(N(C)Cc3cccc(Nc4nc(C)cc(Cl)n4)c3)nc(=O)c2c(OC)c1OC` [Example 219, 2-{[3-(4-Chloro-6-methyl-pyrimidin-2-ylamino)-benzyl]-methyl-amino}-5,6,7-trimethoxy-1H-quinazolin-4-one] is lower in melting point: 225.9 to 227 °C for the first, 191.3 to 192.8 °C for the second.

First: COc1cc2[nH]c(N(C)Cc3cccc(NCc4ncc[nH]4)c3)nc(=O)c2c(OC)c1OC [Example 220, 2-({3-[(1H-Imidazol-2-ylmethyl)-amino]-benzyl}-methylamino)-5,6,7-trimethoxy-1H-quinazolin-4-one]
Second: COc1cc2[nH]c(N(C)Cc3cccc(-c4ncc[nH]4)c3)nc(=O)c2c(C)c1OC [Example 248, 2-{[3-(1H-Imidazol-2-yl)-benzyl]-methyl-amino}-6,7-dimethoxy-5-methyl-1H-quinazolin-4-one]
The melting point of the first is lower: 125 to 131 °C for the first, 255.5 to 258.9 °C for the second.

Compared with `COc1cc2[nH]c(N(C)Cc3cccc(/N=C(\C)N(C)C)c3)nc(=O)c2c(F)c1OC` [Example 221, N′-(3-{[(5-Fluoro-6,7-dimethoxy-4-oxo-1,4-dihydro-quinazolin-2-yl)-methyl-amino]-methyl}-phenyl)-N,N-dimethyl-acetamidine], `COc1cc2[nH]c(N(C)Cc3cccc(C(C)N(C)C(=O)N(C)C)c3)nc(=O)c2c(OC)c1OC` (stereo not shown) [Example 293] is lower in melting point: 199.9 to 201.9 °C for the first, 68 to 70 °C for the second.

Compared with `COc1cc2[nH]c(N(C)Cc3cccc(-n4cnc(C)c4)c3)nc(=O)c2c(C)c1OC` [Example 230, 6,7-Dimethoxyt-5-methyl-2-{methyl-[3-(4-methyl-imidazol-1-yl)-benzyl]-amino}-1H-quinazolin-4-one], `COc1cc2[nH]c(N(C)Cc3cccc(-n4ccc(C)n4)c3)nc(=O)c2c(C)c1OC` [Example 233, 6,7-Dimethoxy-5-methyl-2-{methyl-[3-(3-methyl-pyrazol-1-yl)-benzyl]-amino}-1H-quinazolin-4-one] is lower in melting point: 245 to 249.5 °C for the first, 220 to 223.5 °C for the second.

First: COc1cc2[nH]c(N(C)Cc3cccc(-n4cccn4)c3)nc(=O)c2c(C)c1OC [Example 232, 6,7-Dimethoxy-5-methyl-2-[methyl-(3-pyrazol-1-yl-benzyl)-amino]-1H-quinazolin-4-one]
Second: COc1cc2[nH]c(N(C)Cc3cccc(-c4nccn4C)c3)nc(=O)c2c(C)c1OC [Example 249, 6,7-Dimethoxy-5-methyl-2-{methyl-[3-(1-methyl-`1H-imidazol-2-yl)-benzyl]-amino}-1H-quinazolin-4-one]
The melting point of the first is higher: 220.8 to 224.1 °C for the first, 179 to 182.1 °C for the second.

First: COc1cc2[nH]c(N(C)Cc3ccc(C4=NCCN4C)cc3)nc(=O)c2c(C)c1OC [Example 237, 6,7-Dimethoxy-5-methyl-2-{methyl[4-(1-methyl-,5-dihydro-1H-imidazol-2-yl)-benzyl]-amino}-1H-quinazolin-4-oine]
Second: COc1cc2[nH]c(N(C)Cc3cccc(C4=NCCN4CCO)c3)nc(=O)c2c(C)c1OC [Example 244, 2-({3-[1-(2-Hydroxy-ethyl)-4,5-dihydro-1H-imidazol-2-yl]-benzyl}-methyl-amino)-6,7-dimethoxy-5-methyl-1H-quinazolin-4-one]
The melting point of the first is lower: 179 to 181 °C for the first, 253 to 254.9 °C for the second.

First: COCCN1CCN=C1c1cccc(CN(C)c2nc(=O)c3c(C)c(OC)c(OC)cc3[nH]2)c1 [Example 246, 6,7-Dimethoxy-2-*{3-[1-(2-methoxy-ethyl)-4,5-dihydro-1H-imidazol-2-yl]-benzyl}-methyla-mino)-5-methyl-1H-quinazolin-4-one]
Second: COc1cc2[nH]c(N(C)Cc3cccc(N4CCN(C)C4=O)c3)nc(=O)c2c(C)c1OC [Example 262, 6,7-Dimethoxy-5-methyl-2-{methyl-[3-(3-methyl-2-oxo-imidazolidin-1-yl)-benzyl]-amino}-1H-quinazolin-4-one]
The melting point of the first is lower: 161 to 164.4 °C for the first, 230 to 230.5 °C for the second.

Compared with `COc1cc2[nH]c(N(C)Cc3cccc(N4CCCS4(=O)=O)c3)nc(=O)c2c(C)c1OC` [Example 252, 2-{[3-(1,1-Dioxo-1λ6-isothiazolidin-2-yl)-benzyl]-methyl-amino}-6,7-dimethoxy-5-methyl-1H-quinazolin-4-one], `COc1cc2[nH]c(N(C)Cc3cccc(N4CCCS4(=O)=O)c3)nc(=O)c2c(OC)c1OC` [Example 253, {[3-(1,1-Dioxo-1λ6-isothiazolidin-2-yl)-benzyl]-methyl-amino}-5,6,7-trimethoxy-1H-quinazolin-4-one] is lower in melting point: 226 to 228.5 °C for the first, 181.1 to 183.5 °C for the second.

Compared with `COc1cc2[nH]c(N(C)Cc3cccc(N4CCOC4=O)c3)nc(=O)c2c(C)c1OC` [Example 254, 6,7-Dimethoxy-5-methyl-2-{methyl-[3-(2-oxo-oxazolidin-3-yl)-benzyl]-amino}-1H-quinazolin-4-one], `COc1cc2[nH]c(N(C)Cc3cccc(N4CCOC4=O)c3)nc(=O)c2c(OC)c1OC` [Example 255, 5,6,7-ZTrimethoxy-2-{methyl[3-(2-oxo-oxazolidin-3-yl)-benzyl]-amino}-1H-quinazolin-4-one] is lower in melting point: 254.8 to 257.1 °C for the first, 226 to 229.5 °C for the second.

First: COc1cc2[nH]c(N(C)Cc3cccc(N4CCC(C)C4=O)c3)nc(=O)c2c(C)c1OC (stereo not shown) [Example 256, 6,7-Dimethoxy-5-methyl-2-{methyl-[3-(3-methyl-2-oxo-pyrrolidin-1-yl)-benzyl]-amino}-1H-quinazolin-4-one]
Second: CCC1CCN(c2cccc(CN(C)c3nc(=O)c4c(C)c(OC)c(OC)cc4[nH]3)c2)C1=O (stereo not shown) [Example 257, 2-{[3-(3-Ethyl-2-oxo-pyrrolidin-1-yl)-benzyl]-methyl-amino}-6,7-dimethoxy-5-methyl-1H-quinazolin-4-one]
The melting point of the first is higher: 210.8 to 211.6 °C for the first, 200.1 to 202.1 °C for the second.

First: COc1cc2[nH]c(N(C)Cc3cccc(N4C(=O)CCC4=O)c3)nc(=O)c2c(C)c1OC [Example 259]
Second: COc1cc2[nH]c(N(C)Cc3cccc(N4C(=O)CCC4=O)c3)nc(=O)c2c(OC)c1OC [Example 260, 1-(3-{[Methyl-(5,6,7-trimethoxy-4-oxo-1,4-dihydro-quinazolin-2-yl)-amino]-methyl}-phenyl)-pyrrolidine-2,5-dione]
The melting point of the first is higher: 198.6 to 199.8 °C for the first, 125.5 to 128.5 °C for the second.

First: COc1cc2[nH]c(N(C)Cc3cccc(N4CCNC4=O)c3)nc(=O)c2c(OC)c1OC [Example 261, 5,6,7-Trimethoxy-2-{methyl[3-(2-oxo-imidazolidin-1-yl)-benzyl]-amino}-1H-quinazolin-4-one]
Second: COc1cc2[nH]c(N(C)Cc3cccc(N4CCN(C)C4=O)c3)nc(=O)c2c(OC)c1OC [Example 263, 5,6,7-Trimethoxy-2-{methyl-[3-(3-methyl-2-oxo-imidazolidin-1-yl)-benzyl]-amino}-1H-quinaozlin-4-one]
The melting point of the first is lower: 130 to 133 °C for the first, 205.4 to 207.8 °C for the second.

First: CCN1CCN(c2cccc(CN(C)c3nc(=O)c4c(C)c(OC)c(OC)cc4[nH]3)c2)C1=O [Example 264, 2-{[3-(3-Ethyl-2-oxo-imidazolidin-1-yl)-benzyl]-methyl-amino}-6,7-dimethoxy-5-methyl-1H-quinaozlin-4-one]
Second: CCN1CCN(c2cccc(CN(C)c3nc(=O)c4c(OC)c(OC)c(OC)cc4[nH]3)c2)C1=O [Example 265, 2-{[3-(3-Ethyl-2-oxo-imidazolidin-1-yl)-benzyl]-methyl-amino}-5,6,7-trimethoxy-1H-quinaozlin-4-one]
The melting point of the first is higher: 201.4 to 207.4 °C for the first, 200.3 to 200.9 °C for the second.

First: COCCN1CCN(c2cccc(CN(C)c3nc(=O)c4c(OC)c(OC)c(OC)cc4[nH]3)c2)C1=O [Example 266, 5,6,7-Trimethoxy-2-({3-[3-(2-methoxy-ethyl)-2-oxo-imidazllidin-1-yl]-benzyl}-methyl-amino)-1H-quinazolin-4-one]
Second: COc1cc2[nH]c(N(C)Cc3cccc(C(C)N(C)S(C)(=O)=O)c3)nc(=O)c2c(OC)c1OC (stereo not shown) [Example 292, N-Methyl-N-[1-(3-{[methyl-(5,6,7-trimethoxy-4-oxo-1,4-dihydro-quinazolin-2-yl)-amino]-methyl}-phenyl)-ethyl]-methanesulfonamide]
The melting point of the first is higher: 199.5 to 202.1 °C for the first, 171 to 172.4 °C for the second.

`COc1cc2[nH]c(N(C)Cc3cccc(C(C)N4CCCC4)n3)nc(=O)c2c(C)c1OC` (stereo not shown) [Example 275, 6,7-Dimethoxy-5-methyl-2-{methyl-[6-(1-pyrrolidin-1-yl-ethyl)-pyridin-2-ylmethyl]-amino}-1H-quinazolin-4-one] and `COc1cc2[nH]c(N(C)Cc3cccc(C(C)N4CCC4)n3)nc(=O)c2c(OC)c1OC` (stereo not shown) [Example 278, 2-{[6-(1-Aztidin-1-yl-ethyl)-pyridin-2-ylmethyl]-methyl-amino}-5,6,7-trimethoxy-1H-quinazolin-4-one] cannot be ordered by melting point: 75.4 to 85.6 °C for the first, 70.8 to 78.8 °C for the second.
